Results from patent publication US10732174B2, “Three dimensional tissues for high-throughput assays” (INVIVOSCIENCES, INC., priority 2008, dated 2020).
Entries after “also recorded” stand apart in the source; their conditions may differ. Read-outs that look alike come from different tables or passages of the source.

Experiments:
[1] = system: F-actin in HTCs of REF-52 cells; experiment: F-actin content of HTCs, Alexa-phalloidin, plate reader; assay type: cell-based, rat; conditions: HTC treated 24 hours
From the text: FIG. 5A-FIG. 5W. FIG. 5A is a photograph of The Palpator™. The system includes an isometric force transducer (a), probe baths (b), and a hydrogel tissue construct (HTC) stage (c) on a temperature regulator plate (d). FIG. 5B is a photograph showing the x-y-z motion robotic arm which positions the force transducer with attached probe above the HTCs and lowers the probe onto the tissue for force measurement. FIG. 5C is a schematic of the robotic arm with attached force transducer and probe. FIG. 5D is a photograph of the probe positioned 1 mm above the mid-plane of a HTC (a) and then lowered until it first touches (b) and then stretches (c) the tissue. FIG. 5E is a graph showing representative forces recorded during HTC indentation. Arrows a, b, and c show force measurements associated with probe positions shown in (D). […] HTCs were preconditioned, then treated with varying concentrations of the four drugs as indicated. Forces were measured at 3 (f) and 24 hr (g). Force measurements were expressed relative to control, medium treated, HTCs (Fc). […] HTCs treated with drugs for 24 hours were fixed and labeled with Alexa 568 conjugated phalloidin. Fluorescence intensity was read on a plate reader and plotted relative to control, media treated, HTCs (Ic). […] At 3 hr (i-m) and 24 hr (n-r, s-w) post treatment, representative monolayers were fixed and stained with Alexa 568 conjugated phalloidin and DAPI. […] Note the larger scale bar in (g) and (l). Images were captured on a Leica SP5 confocal microscope using a water-immersion 63× objective, scale bar=50 μm.
Tissue force is maintained through the integrity of the cellular cytoskeleton, especially actin and myosin. To quantify amount of F (filamentous)-actin in the HTCs treated with the compounds, the HTCs were stained with Alexa […] conjugated phalloidin. […] This is in agreement with our previous report that CD mediated reduction in tissue force was due to the loss of intact F-actin. However, force reductions by H1152 and DNP were not related to the loss of F-actin. […] By 24 hours, short F-actins were re-distributed within less-spread (FIG. 5O) and binuclear (FIG. 5T) cells.

[2] = system: human epidermoid cell lines; conditions: reported; cited from earlier work
REF-52 cells = conditions: for F-actin morphology in cells, microscopy: REF monolayers, 3 hr and 24 hr
Description: REF-52 cells were plated on 35 mm culture dishes (50,000 cells) in 10% FBS medium (2 ml). Cells are incubated over night and then treated with compounds. […] Cells were incubated with drugs for 24 hours prior to fixing. To fix, treated cells were rinsed once with 2 ml of phosphate buffered saline (PBS, D5652) and then incubated in 1 ml of 4% paraformaldehyde (Sigma) solution (in PBS) for 30 min. Fixed cells are rinsed twice and then stored in 2 ml of PBS.
Fixed REF-52 cells were permeabilized by incubating in 1 ml of 0.1% Triton (BP151, Fisher Scientific) solution (in PBS) for 15 min. Permeabilized cells were rinsed twice with 1 ml TBST buffer and then blocked with 1 ml of 5% goat serum in TBST for 1 hour. One milliliter of 1:200 diluted Alexa 568 conjugated phalloidin (A12380, Invitrogen) in TBST with 2% goat serum was then added to the cells. This staining solution also contained 400 nM of DAPI (D9564). Cells were stained for 30 min and then rinsed twice with TBST. Labeled cells were mounted with Vectashield (Vector Laboratories, Burlingame, Calif.), covered with a cover slide and then sealed with nail polish. The plate was then inverted on to a Leica SP5 confocal microscope (Leica Microsystems, Bannockburn, Ill.) and imaged with 63× water immersion objective. Alexa 568 was excited using the 543 laser line and DAPI was excited using a MaiTai multi-photon laser.

HTCs of REF-52 cells = conditions: for reduction of MTT signal: 24 hours
Description: 3-(4,5-dimethylthiazol-2-yl)-2,5-diphenyltetrazolium (MTT, M-6494, Invitrogen) was used to quantify cell viability in the HTCs. At predetermined times following drug exposure, MTT was added to each well to achieve 0.5 mg/ml. MTT was left in the wells for 2 hr and then removed. The formazan dye that forms in the cells were then suspended in 500 μl of isopropanol (S77795, Fisher Scientific) containing 0.1 N hydrochloric acid. Two hundred microliters of the formazan solution is then put into a 96-well plate well and read on the Synergy HT plate reader. Absorbance at 570 and 650 nm were recorded and the difference (A570-A650) was used as the absorbance intensity of the formazan.
All chemicals are from Sigma (Sigma-Alrich, St. Louis, Mo.) unless otherwise noted. […] DNP was diluted to 1 M in DMSO and then to 100, 10, and 1 mM in -F/G/P DMEM. Following HTC preconditioning and background force (i.e. pre-drug) measurement, 50 μl of the appropriate drug dilutions were added to each well to achieve the desired treatment concentration. Fifty microliters of -F/G/P DMEM was added to the control wells. Upon drug addition, medium in the wells was mixed by pipetting four times.
Finally to measure the compounds' effects on cellular viability, the assay using 3-(4,5-Dimethylthiazol-2-yl)-2,5-diphenyltetrazolium bromide (MTT) was performed. In cells, the yellow MTT is converted to a purple colored formazan by succinate dehydrogenase and this change can be quantified by light absorbance between 500-600 nm was quantitatively recorded using the plate reader.

[3] = system: hydrogel tissue constructs (HTCs) of REF-52 cells; experiment: HTC force measurement (Palpator); assay type: cell-based, rat; conditions: HTC; for effect on tissue (HTC contractile) force, in words: 3 and 24 hr
Description: Rat embryonic fibroblasts (REF-52) were cultured in Dulbecco's Modified Eagle's Medium (DMEM, MT10013CM, Fisher Scientific, Pittsburgh, Pa.) supplemented with 10% fetal bovine serum (FBS, S11050, Atlanta Biologicals, Lawrenceville, Ga.). Cells were sub-cultured every two to three days. To make hydrogel tissue constructs (HTCs), REF-52 cells (between passages 40 to 70) were dissociated from culture plates by treating with 0.05% trypsin (MT-25-025-CI, Fisher Scientific) for 10 to 15 min. The cells were then centrifuged at 1000 g for 10 min. The trypsin solution was decanted and the cell pellet was re-suspended in 10% FBS DMEM medium. This cell suspension was diluted in HTC tissue solution to achieve a final concentration of 8×10^5 cells per ml. The HTC tissue solution consisted of 10% FBS DMEM, 1 mg/ml of type 1 collagen (354249, BD Biosciences, San Jose, Calif.) in 0.02 N acetic acid, sufficient sodium hydroxide to neutralize the acid in the collagen, and sufficient 5×DMEM to compensate for the volume of collagen and NaOH. To prevent premature collagen polymerization, the HTC tissue solution was kept on ice until its distribution into our custom-made tissue molds (FIG. 3). Each mold contains 8 separate HTC-forming wells with two built-in horizontal support bars. Three hundred microliters of the HTC tissue solution was aliquoted into each well in these molds and then incubated for 30 min at 37° C. and 5% CO2. After the incubation period, […] of 10% FBS DMEM medium was added to each well and the molds were further incubated for 48 hr. In this time, the solution contracted to form HTCs that span the support bars in the wells.
The Palpator™ (as described in U.S. Pat. No. 7,449,306, which is incorporated herein by reference in its entirety) was used to quantify the contractility of the HTCs. The molds were placed on the stage of the Palpator™ which automatically inserted a probe into each well and stretched the individual HTC. The probe was connected to a force transducer which measured the resistance force induced in the HTC in response to stretch and exported the values to a computer for recording. A custom Matlab algorithm was used to process and analyze the force data to report a numerical parameter that is indicative of the active cell force in the HTC. To obtain stable measurements of the HTC contractile force, it was necessary to precondition the HTCs by stretching three times prior to actual force measurement. Preconditioning was not necessary if subsequent force measurements were within 30 min of the previous stretch. HTCs at 24 hr post treatment were always pre-conditioned before force measurement.

[4] = system: mitochondrial membrane potential in HTCs of REF-52 cells; experiment: HTC TMRE labeling, mitochondrial potential; assay type: cell-based, rat; conditions: HTC, TMRE
Description: The ethyl ester of tetramethylrhodamine (TMRE, T-669, Invitrogen, Carlsbad, Calif.) was used to quantify the mitochondrial potential of the HTCs. HTCs were incubated in 100 nM TMRE for 30 min and then in phenol red free 10% FBS DMEM for 60 min. Phenol red free medium was used to prevent interference with TMRE fluorescence reading. Following labeling, HTCs were preconditioned with three stretches and then prior to background force measurement. HTC TMRE signal was then read on a Synergy HT plate reader (Biotek Instruments, Winooski, Vt.). A custom made adapter plate was used to position the tissue molds on the plate-holding rack of the plate reader. Fluorescence signal was read from the bottom using the 543/590 excitation/emission filter set and a gain setting of 50. TMRE fluorescence intensity was also read following each force measurement at predetermined time points after drug treatments.
TMRE is cationic and accumulates in the mitochondria as a function of MMP. […] More detailed investigation of DNP's effect on TMRE accumulation using confocal microscopy improved signal detection in both monolayers and HTCs (FIG. 6C and FIG. 6D).

[5] = 3 hr treatment, read-out: EC50 of tissue force reduction

SMILES: C=C1[C@@H](C)[C@H]2[C@H](Cc3ccccc3)NC(=O)[C@]23[C@H](OC(C)=O)/C=C/[C@@](C)(O)C(=O)[C@@H](C)C/C=C/[C@H]3[C@@H]1O [CD, Cytochalasin D]
- F-actin content of HTCs (Alexa-phalloidin intensity) [1]: significantly reduced
- F-actin content of HTCs (Alexa-phalloidin intensity) ([1]; listed as Cytochalasin D): reduced cellular F-actin
- LD50 [2]: 5 to 30 µM
- cytotoxicity signs in cell monolayers (confluency, nuclei, shrinkage) (REF-52 cells; 24 hours): cytotoxicity was evident
- F-actin morphology in cells, microscopy (REF-52 cells): extensive actin depolymerization by 3 hr; also recorded: extensive disruption of F-actin as early as 3 hours
- reduction of MTT signal (HTCs of REF-52 cells; 0.2 μM): 40%
- reduction of MTT signal (HTCs of REF-52 cells; 2 μM): 40%
- effect on tissue (HTC contractile) force, in words [3]: dose-dependently reduced HTC contractile force; also recorded: dose-dependently reduced tissue force; also recorded: very effective at reducing HTC force
- EC50 [3, 5]: ~0.1 µM

SMILES: C[S+](C)[O-] [DMSO, dimethyl sulfoxide]
- formazan absorbance relative to control (A/Ac) (HTCs of REF-52 cells; rat, 24 h, 10 %): 0.11±9×10^−3

SMILES: Cc1cncc2cccc(S(=O)(=O)N3CCCNC[C@@H]3C)c12 [H-1152]
- F-actin content of HTCs (Alexa-phalloidin intensity) [1]: comparable to controls
- F-actin morphology in cells, microscopy (REF-52 cells; listed as RKI): did not dramatically affect F-actin morphology
- F-actin morphology in cells, microscopy (REF-52 cells; listed as RKI1): limited to no effects
- effect on tissue (HTC contractile) force, in words [3]: dose-dependently reduced tissue force
- effect on tissue (HTC contractile) force, in words ([3]; listed as RKI): very effective at reducing HTC force
- effect on tissue (HTC contractile) force, in words ([3]; listed as RKI1): dose-dependently reduced HTC contractile force; also recorded: effectively reduced tissue force
- EC50 [3, 5]: ~0.1 µM
- EC50 ([3]; time not stated at place, read-out: force-reducing EC50): 0.1 µM
- effect on mitochondrial potential, in words ([4]; listed as RKI): limited mitochondrial and viability toxicity
- effect on mitochondrial potential, in words ([4]; listed as RKI1): minimal uncoupling activity
